Values belong to the compound of their own block, whether it stands above or below them.
What was measured:
p48 SIP kinase [1] = assay: In-gel kinase activity assay (MBP substrate) in extracts of treated tobacco suspension cells: activation of p48 SIP kinase; type: cell-based, Nicotiana tabacum cv Xanthi nc; conditions: tobacco suspension cells; for activation of 48 kDa (p48 SIP) kinase: 250 μM, MBP substrate; for duration of SIP kinase activation relative to SA: data not shown for analogues
Method: The cell suspension culture was derived from callus tissue originated from leaves of Nicotiana tabacum cv Xanthi nc and grown in MS medium supplemented with 1 mg/L α-naphthaleneacetic acid, 0.1 mg/L 2,4-dichlorophenoxyacetic acid, 0.1 mg/L benzyladenine, and 3% sucrose. Log phase cells were used three days after a 1:10 dilution. Treatment with H2 O2, SA and its analogues was performed in the original flasks in the dark to avoid any stresses associated with transfer. At various times, 10 mL cells (approximately 0.2 to 0.3 g fresh weight of cells) were harvested by filtration. The cells were quickly frozen in liquid nitrogen and stored at -80° C. until analysis.
Leaf discs were first ground to a fine powder in 1.5 ml microcentrifuge tubes using small plastic pestles. After adding 0.25 mL extraction buffer (100 mM Hepes, pH 7.5, 5 mM EDTA, 5 mM EGTA, 10 mM DTT, 10 mM Na3 VO4, 10 mM NaF, 50 mM β-glycerolphosphate, 1 mM phenylmethylsulfonyl fluoride, 5 μg/mL antipain, 5 μg/mL aprotinin, 5 μg/mL leupeptin, 10% glycerol, 7.5% polyvinylpolypyrrolidone), the mixture was sonicated for 15 seconds with a W-375 Sonicator (Heat System-Ultrasonics, Inc., N.Y.) fitted with a microprobe at setting 4 and 80% duty cycle. To prepare extracts from treated cells, cells were mixed with two volumes (w/v) of extraction buffer and were then sonicated twice for 15 seconds each in 1.5 mL microcentrifuge tube. After centrifugation at 13,000 rpm for 20 minutes, supernatants were transferred into clean tubes, quickly frozen in liquid nitrogen and stored at -80° C.
The in-gel kinase assay was performed as described previously (Zhang et al., 1993). Extracts containing 10 μg protein were electrophoresed on 10% SDS-polyacrylamide gels imbedded with either 1 mg/mL of casein, 1 mg/mL histone (Type III-SS, Sigma, MO), 1 mg/mL BSA, or 0.25 mg/mL of MBP in the separating gel as substrate for the kinase. After electrophoresis, SDS was removed by washing the gel with washing buffer (25 mM Tris, pH 7.5, 0.5 mM DTT, 0.1 mM Na3 VO4, 5 mM NaF, 0.5 mg/mL BSA, 0.1% Triton X-100 [v/v]). The buffer was changed three times, each for 30 minutes at room temperature. The kinases were allowed to renature in 25 mM Tris, pH 7.5, 1 mM DTT, 0.1 mM Na3 VO4, 5 mM NaF at 4° C. overnight with three changes of buffer. The gel was then incubated at room temperature in 30 mL reaction buffer (25 mM Tris, pH 7.5, 2 mM EGTA, 12 mM MgCl2, 1 mM DTT, 0.1 mM Na3 VO4) with 200 nM ATP plus 50 μCi γ-^32 P-ATP (3000 Ci/mmole) for 60 minutes. The reaction was stopped by transferring the gel into 5% TCA (w/v)/1% NaPPi (w/v). The unincorporated γ-^32 P-ATP was removed by washing in the same solution for at least 6 hours with 5 changes of buffer. The gel was dried onto 3 MM paper and exposed to Kodak XAR-5 film. Prestained size markers (Bio-Rad, CA) were used to calculate the size of the kinases. Quantitation of the relative kinase activities were done using a phosphoimager (Molecular Dynamics Inc., CA).

[2] = test system: PR gene expression and enhanced disease resistance; conditions: Conrath et al., 1995; cited from earlier work
p48 SIP kinase [3] = molecular target: T1, p48 SIP kinase (Nicotiana tabacum, UniProt A0A1S3Z5Y0); assay: Kinetic properties, substrates, cofactors and pH dependence of p48 SIP kinase (in-solution kinase assay); type: biochemical, tobacco; conditions: for use as phospho-donor / phosphate donor: data not shown; for metal ion requirement of the enzyme: FIG. 10B
T1 construct: endogenous in cells; host or cells: SA-treated tobacco suspension culture cells (purified through the poly-L-lysine agarose step)
Method: FIGS. 10A and 10B show a pair of graphs illustrating the effect of pH (FIG. 10A), Mg^2+ and Mn^2+ (FIG. 10B) on p48 SIP kinase activity. Approximately 0.5 unit of partially purified enzyme was used in each test. Buffers used for measuring the effect of pH were 50 mM 2-[N-morpholino]ethanesulfonic acid (Mes, pH 5.0-8.0, .circle-solid.), 50 mM Tris (pH 6.0-9.5, .tangle-solidup.), and 50 mM 3-[cyclohexylamino]-1-propanesulfonic acid (Caps, pH 9.0-12.0, .box-solid.). For testing the effects of Mg^2+ (.circle-solid.), and Mn^2+ (.tangle-solidup.), buffer B from the last purification step was first exchanged to Mg^2+ -free buffer using a desalting column. Mg^2+ was not added in reactions for testing the effect of Mn^2+.
FIG. 11 is a graph depicting the protein substrate preference of the p48 SIP kinase. About 0.5 unit of partially purified enzyme was used in each reaction. The assay conditions were as described below in Example 1, except various concentrations of MBP (.circle-solid.), histone (.tangle-solidup.), and casein (.box-solid.) were used.
(§1) Unless specifically indicated, assays were performed at room temperature for 20 minutes in a final volume of 15 μl containing 0.5 mg/mL of MBP, 50 μM of γ-^32 P-ATP (about 3000-6000 cpm/pmole), 25 mM Tris pH 7.5, 5 mM MgCl2, 1 mM EGTA, 1 mM DTT, and enzyme. The reaction was terminated by the addition of equal volume of 150 mM H3 PO4. Twenty μL of the mixture was spotted onto an 8-well phosphocellulose filter strip (Pierce, Ill.). After washing with 150 mM H3 PO4 extensively, the phospho-protein was eluted with 0.4 mL of 1 N NaOH, and the radioactivity was determined by liquid scintillation counting. Total cpm in the reaction mixture was also determined in order to calculate the specific activity of the enzyme preparation. One unit of p48 SIP kinase was defined as the amount of enzyme that will catalyze the transfer of 1 pmole of phosphate from ATP to MBP in 1 minute.

p48 SIP kinase [4] = molecular target: T1, p48 SIP kinase; assay: In-solution kinase assay: effects of various reagents on p48 SIP kinase activity; type: biochemical, tobacco; conditions: for effect on p48 SIP kinase activity: partially purified p48 SIP kinase; for activity at 5000 µM: 5 mM
Method: as §1
^a For each reagent, a dose response curve was measured under standar
assay conditions. About 0.5 unit of enzyme was used for each reaction.
Control was the enzyme activity in the absence of reagent.

p48 SIP kinase [5] = assay: Treatment of p48 SIP kinase with phosphatases; type: biochemical, tobacco; conditions: okadaic acid against PP1; Na3 VO4 against YOP
Method: FIG. 13 is a histogram showing inactivation of p48 SIP kinase by phosphatase treatment. Approximately 20 units of the SIP kinase was treated with either the serine/threonine-specific phosphatase PPI (0.1 units) or the tyrosine-specific protein phosphatase YOP (0.5 units) for 10 min (bars 2 to 5) or 30 min (bars 7 to 10) at 30° C. in the presence or absence of a phosphatase inhibitor. Bars 1 and 6 represent the control without phosphatase or phosphatase inhibitor; bars 2 and 7, PPI; bars 3 and 8, PPI plus okadaic acid (1 μM); bars 4 and 9, YOP; bars 5 and 10, YOP plus Na3 VO4 (1 mM). Before assaying for SIP kinase activity, the phosphatase inhibitors were added to all of the reactions to the same final concentrations.
The phosphatase inhibitors present in the purified p48 SIP kinase preparation were first removed by dialysis against buffer B lacking β-glycerophosphate and Na3 VO4 in a 0.5-mL 10 K dialysis cassette (Slide-A-Lyzer; Pierce). For treatment with serine/threonine protein phosphatase PP1 (Calbiochem, San Diego, Calif.), MnCl2, DTT, and BSA were added to aliquots of the SIP kinase preparation to final concentrations of 200 μm, 5 mM and 100 μg/mL respectively. Then 0.1 unit of PP1 was added, and the reaction mixture was incubated at 30° C. in the presence or absence of 1 μM of the phosphatase inhibitor okadaic acid (Calbiochem). […]

[6] = molecular target: p48 SIP kinase (salicylic acid-induced protein kinase), activated form from SA- or H2O2-treated tobacco cells, in extracts or purified (tobacco (Nicotiana tabacum cv Xanthi nc))
[7] = 20 min, pH 7.5, read-out: Relative Activity

T1 sequence (A0A1S3Z5Y0 whole entry): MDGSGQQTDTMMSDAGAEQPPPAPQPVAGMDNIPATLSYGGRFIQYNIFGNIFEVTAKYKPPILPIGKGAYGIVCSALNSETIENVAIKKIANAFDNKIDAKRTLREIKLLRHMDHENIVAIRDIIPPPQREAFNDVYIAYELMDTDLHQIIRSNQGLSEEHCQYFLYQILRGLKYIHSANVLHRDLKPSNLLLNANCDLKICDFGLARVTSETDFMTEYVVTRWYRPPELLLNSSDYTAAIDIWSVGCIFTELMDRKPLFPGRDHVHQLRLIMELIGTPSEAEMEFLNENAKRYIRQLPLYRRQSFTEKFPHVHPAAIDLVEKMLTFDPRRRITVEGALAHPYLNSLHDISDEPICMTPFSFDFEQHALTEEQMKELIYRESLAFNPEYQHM

Compound: O=C(O)c1cccc(O)c1 [3-HBA, 3-hydroxybenzoic acid]
activation of 48 kDa (p48 SIP) kinase (p48 SIP kinase [1]): poor activators

Compound: O=C(O)c1ccc(Cl)cc1O [4-CSA, 4-chloroSA]
activation of 48 kDa (p48 SIP) kinase (p48 SIP kinase [1]): activated the SIP kinase to similar extents as SA
duration of SIP kinase activation relative to SA (p48 SIP kinase [1]): more sustained activation of the SIP kinase than SA
induction of PR gene expression and enhanced disease resistance [2]: induce PR gene expression and enhanced disease resistance in tobacco

Compound: O=C(O)c1ccc(O)cc1 [4-HBA]
activation of 48 kDa (p48 SIP) kinase (p48 SIP kinase [1]): poor activators

Compound: O=C(O)c1cc(Cl)ccc1O [5-CSA]
activation of 48 kDa (p48 SIP) kinase (p48 SIP kinase [1]): activated the SIP kinase to similar extents as SA
duration of SIP kinase activation relative to SA (p48 SIP kinase [1]): more sustained activation of the SIP kinase than SA
induction of PR gene expression and enhanced disease resistance [2]: induce PR gene expression and enhanced disease resistance in tobacco

calcium requirement for activity (p48 SIP kinase [3]): lacks a calcium requirement for activity
Relative Activity (p48 SIP kinase [4]; 0.5 mM, 20 min): 100 % of control
Relative Activity (p48 SIP kinase [4]; 5.0 mM, 20 min): 50 % of control
effect on p48 SIP kinase activity (p48 SIP kinase [4]): inhibited the enzyme
Compound: [Ca+2] [Ca^2+]

activity at 5000 µM (p48 SIP kinase [4]; [7]): 100%
Compound: OC(CS)C(O)CS (stereo not drawn) [DTT]

activity at 5000 µM (p48 SIP kinase [4]; [7]): 50%
Compound: CN(C)C(=O)/N=N/C(=O)N(C)C [Diamide]

activity at 10000 µM (p48 SIP kinase [4]; 20 min, pH 7.5, 10 mM, read-out: Relative Activity): 100%
effect on p48 SIP kinase activity (p48 SIP kinase [4]): no effect on its activity
Compound: O=C(O)CN(CCOCCOCCN(CC(=O)O)CC(=O)O)CC(=O)O [EGTA]

activity at 20 µM (p48 SIP kinase [4]; 20 min, pH 7.5, 20 μM, read-out: Relative Activity): 100%
effect on p48 SIP kinase activity (p48 SIP kinase [4]): no effect on its activity
Compound: O=c1c(-c2ccc(O)cc2)coc2cc(O)cc(O)c12 [Genistein, genistein]

Compound: COC(=O)[C@@]1(O)C[C@H]2O[C@]1(C)n1c3ccccc3c3c4c(c5c6ccccc6n2c5c31)C(=O)NC4 [K-252a]
IC50 (p48 SIP kinase [4]): 12 nM
activity at 0.012 µM (p48 SIP kinase [4]; [7]): 50%

Vmax (p48 SIP kinase [3]): 0.39 µmol/min/mg
Km (p48 SIP kinase [3]; Mg^2+ -ATP): 24 µM
Compound: Nc1ncnc2c1ncn2[C@@H]1O[C@H](COP(=O)(O)OP(=O)([O-])OP(=O)([O-])O)[C@@H](O)[C@H]1O.[Mg+2] [Mg^2+ -ATP]

use as phospho-donor / phosphate donor (p48 SIP kinase [3]): could not use
use as phospho-donor / phosphate donor (p48 SIP kinase [3]; listed as GTP): unable to use GTP as a phosphate donor
Compound: Nc1nc2c(ncn2[C@@H]2O[C@H](COP(=O)(O)OP(=O)(O)OP(=O)(O)O)[C@@H](O)[C@H]2O)c(=O)[nH]1 [Mg^2+ -GTP]

Compound: [Mg+2] [Mg^2+]
metal ion requirement of the enzyme (p48 SIP kinase [3]): absolute requirement
MgCl2 concentration up to which kinase activity was strongly stimulated (p48 SIP kinase [3]; total concentration): ≤ 2 mM

metal ion requirement of the enzyme (p48 SIP kinase [3]): could not substitute for Mg^2+
Compound: [Mn+2] [Mn^2+]

Compound: [Na+].[Na+].[Na+].[O]=[V]([O-])([O-])[O-] [Na3 VO4]
prevention of phosphatase inactivation of SIP kinase (p48 SIP kinase [5]): could be prevented

Compound: [Na+] [Na^+]
Relative Activity (p48 SIP kinase [4]; 100 mM, 20 min): 100 % of control
Relative Activity (p48 SIP kinase [4]; 750 mM, 20 min): 50 % of control

activity at 1000 µM (p48 SIP kinase [4]; 20 min, pH 7.5, 1 mM, read-out: Relative Activity): 100%
Compound: NCCCCNCCCN [Spermidine, spermidine]
effect on p48 SIP kinase activity (p48 SIP kinase [4]): showed no effect at the concentrations tested

Compound: CN[C@@H]1C[C@H]2O[C@@](C)([C@@H]1OC)n1c3ccccc3c3c4c(c5c6ccccc6n2c5c31)C(=O)NC4 [Staurosporine, staurosporine]
IC50 (p48 SIP kinase [4]): 60 nM
activity at 0.06 µM (p48 SIP kinase [4]; [7]): 50%

Compound: [Zn+2] [Zn^2+]
Relative Activity (p48 SIP kinase [4]; 0.10 mM, 20 min): 100 % of control
Relative Activity (p48 SIP kinase [4]; 0.25 mM, 20 min): 50 % of control
effect on p48 SIP kinase activity (p48 SIP kinase [4]): inhibited the enzyme

Relative Activity (p48 SIP kinase [4]; 50 μg mL^-1, 20 min): 50 % of control
effect on p48 SIP kinase activity (p48 SIP kinase [4]): showed inhibitory effects
Compound: Heparin

Relative Activity (p48 SIP kinase [4]; 500 μg mL^-1, 20 min): 50 % of control
effect on p48 SIP kinase activity (p48 SIP kinase [4]): showed inhibitory effects
Compound: Poly-L-glutamate [listing 1 of 2 here]

Relative Activity % of control (% of control at 500 µg mL^-1) [6]: 50
Compound: Poly-L-glutamate [listing 2 of 2 here]

Relative Activity (p48 SIP kinase [4]; 500 μg mL^-1, 20 min): 100 % of control
Compound: Poly-L-glutamine [listing 1 of 2 here]
effect on p48 SIP kinase activity (p48 SIP kinase [4]): showed no effect at the concentrations tested

Relative Activity % of control (% of control at 500 µg mL^-1) [6]: 100
Compound: Poly-L-glutamine [listing 2 of 2 here]

Compound: Poly-L-lysine [listing 1 of 2 here]
Relative Activity (p48 SIP kinase [4]; 25 μg mL^-1, 20 min): 50 % of control
effect on p48 SIP kinase activity (p48 SIP kinase [4]): showed inhibitory effects

Relative Activity % of control (% of control at 25 µg mL^-1) [6]: 50
Compound: Poly-L-lysine [listing 2 of 2 here]

Compound: Protamine
Relative Activity (p48 SIP kinase [4]; 25 μg mL^-1): 50 % of control
effect on p48 SIP kinase activity (p48 SIP kinase [4]): showed inhibitory effects

Relative Activity % of control (% of control at 25 µg mL^-1) [6]: 50
Compound: protamine

Reference: patent publication US5977442A, “Salicylic acid induced map kinase and its use for enhanced disease resistance in plants” (priority 1997, dated 1999)
